Here are results for two molecules from patent publication US6506801B1, “Methods of treating anosmia and repopulating olfactory nerves with retinoids” (Monell Chemical Senses Center, priority 2000, dated 2003).

Test [1] deals with olfactory nerve recovery after bilateral olfactory nerve transection. The experiment in a line: Buried food task after bilateral olfactory nerve transection (BNX).
The next test has as its system complicated anosmia. Conditions: Duncan et al. 1962; cited from earlier work.

On to `CC1=C(/C=C/C(C)=C/C=C/C(C)=C/C(=O)O)C(C)(C)CCC1` [RA, all-trans retinoic acid], for which, in test [1] (BNX mice, FIG. 1, food-finding times to post-surgical day 14), the “initial rate of recovery versus BNX-oil” value is “faster”. Besides, the “treatment effect on mean food finding times across the recovery period” value in test [1] (BNX mice, post-surgical days 3-14, two-factor repeated measures ANOVA, F(1,15)=5.85, p<0.05, treatment X day interaction p<0.005) is listed as “significant treatment effect”. Further, the “mean post-surgical day on which animals reached criterion for initial recovery (first day of three consecutive days of <180 seconds food-finding time)” value in test [1] (BNX mice, single oral 75 mg/kg atRA in sesame oil one day after surgery, n=9, BNX-oil 10.75±1.28, p<0.05) is 7.56±0.67 post-surgical day. In test [1] (BNX mice, single oral 75 mg/kg atRA in sesame oil, n=9), the “post-surgical days between which animals reached criterion for initial recovery” value is given as 4-11 post-surgical days. Moreover, the “recovery time needed to return to pre-surgical level of performance (≦30 seconds)” value in test [1] (BNX mice, single oral 75 mg/kg atRA, no difference from BNX-oil (9.25 days), p=0.761) is reported as 9.8 days. Also, the “food-finding performance of sham-operated animals after surgery” value in test [1] (sham mice, single oral 75 mg/kg atRA, n=4, FIG. 1) is “performed at pre-surgical levels”.

Turning to Vitamin A, the “usefulness in treating anosmia associated with skull injuries and fractures with sheering of olfactory nerves” value in the test with complicated anosmia is reported as “not to be useful”.
